Active and inactive are the calls of the source. No cut-off for these calls is given here.
Experiments:
Tyrosinase = target: T1, Tyrosinase (Agaricus bisporus, UniProt O42713); assay: Inhibition of mushroom tyrosinase assessed as reduction in dopachrome production using L-DOPA as substrate after 5 mins by spectrophotometric analysis
T1 sequence (O42713 whole entry): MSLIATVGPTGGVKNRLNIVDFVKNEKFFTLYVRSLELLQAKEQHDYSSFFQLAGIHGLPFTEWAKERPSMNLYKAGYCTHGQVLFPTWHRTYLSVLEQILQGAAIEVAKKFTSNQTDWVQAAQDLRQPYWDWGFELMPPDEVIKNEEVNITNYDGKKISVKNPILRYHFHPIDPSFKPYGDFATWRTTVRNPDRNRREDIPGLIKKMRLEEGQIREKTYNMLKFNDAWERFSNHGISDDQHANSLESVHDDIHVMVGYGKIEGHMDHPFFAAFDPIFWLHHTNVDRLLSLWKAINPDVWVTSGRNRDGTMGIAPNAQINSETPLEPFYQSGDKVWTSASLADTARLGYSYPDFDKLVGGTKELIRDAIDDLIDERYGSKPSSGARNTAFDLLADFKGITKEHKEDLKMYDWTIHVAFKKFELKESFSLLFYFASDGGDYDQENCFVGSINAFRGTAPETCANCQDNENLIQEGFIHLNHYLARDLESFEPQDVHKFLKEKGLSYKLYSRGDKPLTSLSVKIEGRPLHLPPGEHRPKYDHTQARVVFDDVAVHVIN

[1] = target: T2, Tyrosinase (Agaricus bisporus) (UniProt O42713); assay: Competitive inhibition of mushroom tyrosinase assessed as increase in Km for substrate at 0.48 to 1.92 uM using varying levels of L-DOPA as substrate by Lineweaver-Burk plot analysis
T2 sequence (whole entry): T1 sequence (O42713 whole entry)

[2] = target: T2, Tyrosinase (Agaricus bisporus); assay: Competitive inhibition of mushroom tyrosinase assessed as Vmax for substrate at 0.48 to 1.92 uM using varying levels of L-DOPA as substrate by Lineweaver-Burk plot analysis
B16-F10 = assay: Inhibition of alpha-MSH-stimulated melanogenesis in mouse B16F10 cells assessed as melanin content at 10 uM measured after 48 hrs relative to control; assay type: functional; conditions: B16-F10, 48 h
[3] = target: T2, Tyrosinase (Agaricus bisporus); assay: Potency index, ratio of kojic acid IC50 to compound IC50 for inhibition of mushroom tyrosinase using L-DOPA as substrate

SMILES | IC50 (Tyrosinase) | also measured
O=C(c1ccc(Br)cc1)N1CCN(Cc2ccc(F)cc2)CC1 | 4610 nM | –
O=C(c1ccccc1Cl)N1CCN(Cc2ccc(F)cc2)CC1 | 3120 nM | –
O=C(c1ccc(Cl)cc1Cl)N1CCN(Cc2ccc(F)cc2)CC1 | 790 nM | –
O=C(c1ccc(O)cc1O)N1CCN(Cc2ccc(F)cc2)CC1 | 1490 nM | –
O=C(c1cccc(Br)c1)N1CCN(Cc2ccc(F)cc2)CC1 | 2400 nM | –
O=C(c1cccc([N+](=O)[O-])c1)N1CCN(Cc2ccc(F)cc2)CC1 | 3600 nM | –
O=C(c1cccc(Cl)c1)N1CCN(Cc2ccc(F)cc2)CC1 | 5300 nM | –
O=C(c1ccc(C(F)(F)F)cc1)N1CCN(Cc2ccc(F)cc2)CC1 | 3380 nM | –
Nc1cccc(C(=O)N2CCN(Cc3ccc(F)cc3)CC2)c1 | 3810 nM | –
COc1ccc(C(=O)N2CCN(Cc3ccc(F)cc3)CC2)c(OC)c1 | 1400 nM | –
O=C(c1ccc(Cl)cc1)N1CCN(Cc2ccc(F)cc2)CC1 | 3510 nM | –
O=C(c1ccc([N+](=O)[O-])cc1[N+](=O)[O-])N1CCN(Cc2ccc(F)cc2)CC1 | 960 nM | inhibition [1]: Active; inhibition [2]: Active; inhibition at 10 µM (B16-F10): 22.8%; Ratio IC50 [3]: 20
O=C(c1ccc(Br)cc1Br)N1CCN(Cc2ccc(F)cc2)CC1 | 1050 nM | –
Nc1ccccc1C(=O)N1CCN(Cc2ccc(F)cc2)CC1 | 10900 nM | –
O=C(c1ccccc1[N+](=O)[O-])N1CCN(Cc2ccc(F)cc2)CC1 | 870 nM | –
Nc1ccc(C(=O)N2CCN(Cc3ccc(F)cc3)CC2)c(N)c1 | 3670 nM | –

Continued, in another order:

IC50 (Tyrosinase) | SMILES | also measured
480 nM | O=C(c1ccccc1C(F)(F)F)N1CCN(Cc2ccc(F)cc2)CC1 | –
2030 nM | O=C(c1ccccc1Br)N1CCN(Cc2ccc(F)cc2)CC1 | –
1630 nM | O=C(c1ccc(C(F)(F)F)cc1C(F)(F)F)N1CCN(Cc2ccc(F)cc2)CC1 | –
1910 nM | O=C(c1ccc(F)cc1F)N1CCN(Cc2ccc(F)cc2)CC1 | –
3430 nM | Cc1ccc(C(=O)N2CCN(Cc3ccc(F)cc3)CC2)c(C)c1 | –
14700 nM | Nc1ccc(C(=O)N2CCN(Cc3ccc(F)cc3)CC2)cc1 | –
2050 nM | O=C(c1ccc([N+](=O)[O-])cc1)N1CCN(Cc2ccc(F)cc2)CC1 | –
8430 nM | O=C(c1cccc(C(F)(F)F)c1)N1CCN(Cc2ccc(F)cc2)CC1 | –
